Our source for the Survival values is ChEMBL document CHEMBL3232992, “Synthesis and the hepatoprotective activity of dibenzocyclooctadiene lignan derivatives” (2014).

The experiment concerns L02. Description: Hepatoprotective activity against carbon tetrachloride-induced toxicity in human HL-7702 cells assessed as increase of cell survival rate at 0.2 ug/ul pretreated for 12 hrs before carbon tetrachloride addition by MTS assay relative to control. It counts as functional. In general terms: Tetrazolium dyes change colour on reduction, which living cells bring about.
Consider `COc1c(Cl)c2c(c(OC)c1OC)-c1c(c(Cl)c(OC)c(OC)c1OC)C[C@](C)(O)[C@@H](C)C2`, for which the Survival is 44%.

As for `COc1cc2c(c(OC)c1OC)-c1c(c(Cl)c(OC)c(OC)c1OC)C[C@](C)(O)[C@@H](C)C2`, the Survival stood at 44%. The same measure for `COc1c(Br)c2c(c(OC)c1OC)-c1c(c(Br)c(OC)c(OC)c1OC)C[C@](C)(O)[C@@H](C)C2`: 54.2%; for `COc1cc2c(c(OC)c1OC)-c1c(c(Br)c(OC)c(OC)c1OC)C[C@](C)(O)[C@@H](C)C2`: 50%. Regarding `COc1c(I)c2c(c(OC)c1OC)-c1c(c(I)c(OC)c(OC)c1OC)C[C@](C)(O)[C@@H](C)C2`, the Survival is 45%.

Consider `COc1cc2c(c(OC)c1OC)-c1c(c(I)c(OC)c(OC)c1OC)C[C@](C)(O)[C@@H](C)C2`, for which the Survival is recorded as 40.9%.

On to `COC1=C(OC)C23C(=CC1=O)CC(C)C2(C)Cc1cc(OC)c(OC)c(OC)c13` (stereo unspecified), for which the Survival is listed as 34.6%. The same measure for `COc1c(Br)c2c(c(OC)c1OC)-c1c(c(OC)c(OC)c(OC)c1OC)C[C@](C)(O)[C@@H](C)C2`: 73.6%; for `COc1c(Cl)c2c(c(OC)c1OC)-c1c(c(Cl)c3c(c1OC)OCO3)C[C@H](C)[C@H](C)C2`: 51.8%. Turning to `COc1c(Cl)c2c(c(OC)c1OC)-c1c(cc3c(c1OC)OCO3)C[C@H](C)[C@H](C)C2`, the Survival worked out at 43.4%. With `COc1c(Br)c2c(c(OC)c1OC)-c1c(c(Br)c3c(c1OC)OCO3)C[C@H](C)[C@H](C)C2` the figure was 63.4%; with `COc1c(Br)c2c(c(OC)c1OC)-c1c(cc3c(c1OC)OCO3)C[C@H](C)[C@H](C)C2`, 49.1%. As for `COc1c(I)c2c(c(OC)c1OC)-c1c(c(I)c3c(c1OC)OCO3)C[C@H](C)[C@H](C)C2`, the Survival is given as 90%. The same measure for `COc1c(OC)c(C(C)=O)c2c(c1OC)-c1c(cc3c(c1OC)OCO3)C[C@H](C)[C@H](C)C2`: 44.4%; for `COc1cc2c(c(OC)c1OC)-c1c(cc(OC)c(OC)c1OC(C)=O)C[C@H](C)[C@H](C)C2`: 65%; for `COc1c(O)c2c(c(Cl)c1OC)C[C@H](C)[C@H](C)Cc1c(Cl)c(OC)c(OC)c(OC)c1-2`: 98.5%.

As for `COc1cc2c(c(OC)c1OC)-c1c(O)c(OC)c(OC)c(Cl)c1C[C@H](C)[C@H](C)C2`, the Survival is recorded as 63%. The same measure for `COc1c(O)c2c(c(Br)c1OC)C[C@H](C)[C@H](C)Cc1c(Br)c(OC)c(OC)c(OC)c1-2`: 83%; for `COc1cc2c(c(OC)c1OC)-c1c(O)c(OC)c(OC)c(Br)c1C[C@H](C)[C@H](C)C2`: 82%; for `COc1c(O)c2c(c(I)c1OC)C[C@H](C)[C@H](C)Cc1c(I)c(OC)c(OC)c(OC)c1-2`: 50%.

Take `COC1=C(OC)C(OC(C)=O)C2=C(C[C@H](C)[C@H](C)Cc3cc(OC)c(OC)c(OC)c32)C1=O` (stereo partly specified): the Survival is on record as 52.7%. With `COC1=C(OC)C(=O)C2=C(C[C@H](C)[C@H](C)Cc3cc(OC)c(OC)c(OC)c32)C1=O` the figure was 85.5%. On to `COC(=O)c1cc(OC)c2c(c1-c1c(C(=O)OC)cc(OC)c3c1OCO3)OCO2` [BIFENDATE], for which the Survival came out at 40.3%.

As to `COc1cc2c(c(O)c1OC)-c1c(cc(OC)c(OC)c1OC)C[C@@H](C)[C@@H](C)C2` [SCHISANHENOL], the Survival is 48.1%. On to `COc1cc2c(c(OC)c1OC)-c1c(cc(OC)c(OC)c1OC)C[C@](C)(O)[C@@H](C)C2` [SCHIZANDRIN], for which the Survival came out at 43.3%. Consider `COc1cc2c(c(OC)c1OC)-c1c(cc3c(c1OC)OCO3)C[C@H](C)[C@H](C)C2` [WUWEIZISU B], for which the Survival is recorded as 42.8%.
